Laboratory results taken from PubChem BioAssay (NCI).
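Grown in 96-well plates, cells were treated for 48 hours with each compound at five concentrations. Insufficient inhibition: endpoint recorded as highest concentration tested. Abbreviation: GI50, concentration required for 50% inhibition of growth. TGI denotes the concentration required for complete inhibition of growth.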

What was measured:
Experiment in all cases: DTP human tumour cell line panel, 48 h
TK-10 renal = test system: TK-10 renal
MDA-MB-231 breast = test system: MDA-MB-231 breast
SF-268 CNS = test system: SF-268 CNS
MCF7 breast = test system: MCF7 breast
SF-539 CNS = test system: SF-539 CNS
SK-MEL-5 melanoma = test system: SK-MEL-5 melanoma
NCI/ADR-RES ovarian = test system: NCI/ADR-RES ovarian
HL-60(TB) leukemia = test system: HL-60(TB) leukemia
SK-MEL-2 melanoma = test system: SK-MEL-2 melanoma
HT29 colon = test system: HT29 colon
U251 CNS = test system: U251 CNS
MDA-MB-435 = test system: MDA-MB-435
HCT-116 colon = test system: HCT-116 colon
SN12C renal = test system: SN12C renal
SK-OV-3 ovarian = test system: SK-OV-3 ovarian
KM12 colon = test system: KM12 colon
UACC-62 melanoma = test system: UACC-62 melanoma
IGROV1 ovarian = test system: IGROV1 ovarian
T-47D breast = test system: T-47D breast
RPMI-8226 leukemia = test system: RPMI-8226 leukemia
SW-620 colon = test system: SW-620 colon
786-0 renal = test system: 786-0 renal
CCRF-CEM leukemia = test system: CCRF-CEM leukemia
HOP-62 NSCLC = test system: HOP-62 NSCLC
UACC-257 melanoma = test system: UACC-257 melanoma
MOLT-4 leukemia = test system: MOLT-4 leukemia
HCT-15 colon = test system: HCT-15 colon
BT-549 breast = test system: BT-549 breast
NCI-H460 lung = test system: NCI-H460 lung
A498 renal = test system: A498 renal
DU-145 prostate = test system: DU-145 prostate
NCI-H23 lung = test system: NCI-H23 lung
A549 NSCLC = test system: A549 NSCLC
HCC-2998 colon = test system: HCC-2998 colon
SNB-19 CNS = test system: SNB-19 CNS
OVCAR-4 ovarian = test system: OVCAR-4 ovarian
SF-295 CNS = test system: SF-295 CNS
M14 melanoma = test system: M14 melanoma
SK-MEL-28 melanoma = test system: SK-MEL-28 melanoma
LOX IMVI melanoma = test system: LOX IMVI melanoma
COLO 205 colon = test system: COLO 205 colon
SNB-75 CNS = test system: SNB-75 CNS
OVCAR-3 ovarian = test system: OVCAR-3 ovarian
CAKI-1 renal = test system: CAKI-1 renal
HOP-92 NSCLC = test system: HOP-92 NSCLC
HS 578T breast = test system: HS 578T breast
NCI-H522 lung = test system: NCI-H522 lung
UO-31 renal = test system: UO-31 renal
SR leukemia = test system: SR leukemia
PC-3 prostate = test system: PC-3 prostate
ACHN renal = test system: ACHN renal
NCI-H226 lung = test system: NCI-H226 lung

**Q.** Which results are given for `COc1ccc2nc3cc(Cl)ccc3c(NCCCCCN3CCCCC3)c2c1`?
**A.** GI50 (TK-10 renal): 1.57 µM; TGI (TK-10 renal): 3.66 µM; GI50 (MDA-MB-231 breast): 1.01 µM; TGI (MDA-MB-231 breast): 3.1 µM; GI50 (SF-268 CNS): 1.03 µM; TGI (SF-268 CNS): 2.88 µM; GI50 (MCF7 breast): 0.0408 µM; TGI (MCF7 breast): 2.13 µM; GI50 (SF-539 CNS): 0.0559 µM; TGI (SF-539 CNS): 2.29 µM; GI50 (SK-MEL-5 melanoma): 1.6 µM; TGI (SK-MEL-5 melanoma): 2.96 µM; GI50 (NCI/ADR-RES ovarian): 0.0825 µM; TGI (NCI/ADR-RES ovarian): 4.24 µM; GI50 (HL-60(TB) leukemia): 1.55 µM; TGI (HL-60(TB) leukemia): 3.54 µM; GI50 (SK-MEL-2 melanoma): 2.22 µM; TGI (SK-MEL-2 melanoma): 4.04 µM; GI50 (HT29 colon): 0.0338 µM; TGI (HT29 colon): 1.59 µM; GI50 (U251 CNS): 1.31 µM; TGI (U251 CNS): 3.1 µM; GI50 (MDA-MB-435): 1.37 µM; TGI (MDA-MB-435): 2.73 µM; GI50 (HCT-116 colon): 0.0435 µM; TGI (HCT-116 colon): 1.91 µM; GI50 (SN12C renal): 0.0763 µM; TGI (SN12C renal): 4.7 µM; GI50 (SK-OV-3 ovarian): 1.26 µM; TGI (SK-OV-3 ovarian): 3.1 µM; GI50 (KM12 colon): 0.0576 µM; TGI (KM12 colon): 2.7 µM; GI50 (UACC-62 melanoma): 2.07 µM; TGI (UACC-62 melanoma): 3.93 µM; GI50 (IGROV1 ovarian): 0.0888 µM; TGI (IGROV1 ovarian): 4.1 µM; GI50 (T-47D breast): 1.94 µM; TGI (T-47D breast): 4.58 µM; GI50 (RPMI-8226 leukemia): 1.95 µM; TGI (RPMI-8226 leukemia): 6.32 µM; GI50 (SW-620 colon): 0.0369 µM; TGI (SW-620 colon): 2.16 µM; GI50 (786-0 renal): 0.056 µM; TGI (786-0 renal): 1.95 µM; GI50 (CCRF-CEM leukemia): 0.073 µM; TGI (CCRF-CEM leukemia): 6.38 µM; GI50 (HOP-62 NSCLC): 0.0654 µM; TGI (HOP-62 NSCLC): 2.63 µM; GI50 (UACC-257 melanoma): 1.94 µM; TGI (UACC-257 melanoma): 3.77 µM; GI50 (MOLT-4 leukemia): 0.0416 µM; TGI (MOLT-4 leukemia): 3.12 µM; GI50 (HCT-15 colon): 0.0412 µM; TGI (HCT-15 colon): 1.85 µM; GI50 (BT-549 breast): 1.72 µM; TGI (BT-549 breast): 3.28 µM; GI50 (NCI-H460 lung): 0.0361 µM; TGI (NCI-H460 lung): 1.45 µM; GI50 (A498 renal): 0.0114 µM; TGI (A498 renal): 1.88 µM; GI50 (DU-145 prostate): 0.0558 µM; TGI (DU-145 prostate): 2.46 µM; GI50 (NCI-H23 lung): 1.09 µM; TGI (NCI-H23 lung): 2.85 µM; GI50 (A549 NSCLC): 0.068 µM; TGI (A549 NSCLC): 2.73 µM; GI50 (HCC-2998 colon): 0.0673 µM; TGI (HCC-2998 colon): 2.05 µM; GI50 (SNB-19 CNS): 1.14 µM; TGI (SNB-19 CNS): 5.54 µM; GI50 (OVCAR-4 ovarian): 0.086 µM; TGI (OVCAR-4 ovarian): 3.01 µM; GI50 (SF-295 CNS): 0.0502 µM; TGI (SF-295 CNS): 1.91 µM; GI50 (M14 melanoma): 1.65 µM; TGI (M14 melanoma): 3.15 µM; GI50 (SK-MEL-28 melanoma): 1.86 µM; TGI (SK-MEL-28 melanoma): 3.67 µM; GI50 (LOX IMVI melanoma): 0.0355 µM; TGI (LOX IMVI melanoma): 1.44 µM; GI50 (COLO 205 colon): 0.0668 µM; TGI (COLO 205 colon): 2.32 µM; GI50 (SNB-75 CNS): 1.27 µM; TGI (SNB-75 CNS): 2.56 µM; GI50 (OVCAR-3 ovarian): 0.123 µM; TGI (OVCAR-3 ovarian): 2.24 µM; GI50 (CAKI-1 renal): 1.33 µM; TGI (CAKI-1 renal): 4.03 µM; GI50 (HOP-92 NSCLC): 1.62 µM; TGI (HOP-92 NSCLC): 4.1 µM; GI50 (HS 578T breast): 1.82 µM; TGI (HS 578T breast): 4.5 µM; GI50 (NCI-H522 lung): 1.44 µM; TGI (NCI-H522 lung): 3.27 µM; GI50 (UO-31 renal): 1.43 µM; TGI (UO-31 renal): 3.7 µM; GI50 (SR leukemia): 0.0314 µM; TGI (SR leukemia): 2.13 µM; GI50 (PC-3 prostate): 1.07 µM; TGI (PC-3 prostate): 4.51 µM; GI50 (ACHN renal): 0.0447 µM; TGI (ACHN renal): 2.84 µM; GI50 (NCI-H226 lung): 1.1 µM; TGI (NCI-H226 lung): 3.33 µM
